{
  "source": "patent US20110142914A1",
  "about": "“INHALABLE COMPOSITIONS HAVING ENHANCED BIOAVAILABILITY” (CYTOTECH LABS, LLC, priority 2007, published 2011)",
  "system": "IL-12",
  "assay": "Inflammatory response to pulmonary administration: BAL supernatant ELISA for IL-12 elevation",
  "format": "in vivo",
  "conditions": "mice",
  "experimental": "Inflammatory response to the administration of CoQ10 (or the liposomal concentrate of CoQ10 produced in Example 1 above) to the lungs. Surgery is performed on sacrificed mice to expose the pleural cavity and trachea at the throat. […] An aliquot (about 0.75 mL) of phosphate buffered saline is instilled through the cannula into the lungs and removed to wash the bronchial and alveolar surfaces. This process is repeated for a total of three washes. The phosphate buffered saline containing cells is placed into centrifuge vials and centrifuged at about 3000 rpm (MiniSpin Plus, Eppendorf International, Hamburg, Del.). The supernatant is removed leaving the collected cells in the pellet. The supernatant from the BAL (Bronchoalveolar Lavage) is analyzed by enzyme-linked immunosorbent assay (ELISA) for IL-12 elevation (n=2 per sample tested).",
  "data": [
    {"smiles": "COC1=C(OC)C(=O)C(C/C=C(\\C)CC/C=C(\\C)CC/C=C(\\C)CC/C=C(\\C)CC/C=C(\\C)CC/C=C(\\C)CC/C=C(\\C)CC/C=C(\\C)CC/C=C(\\C)CCC=C(C)C)=C(C)C1=O", "note": "[CoQ10, Coenzyme Q10]", "values": [
      {"measurement": "inflammation of the lung", "result": "not a cause of inflammation of the lung"},
      {"measurement": "rise in IL-12 levels (BAL supernatant, ELISA)", "setting": "n=2 per sample tested", "result": "not connected to a rise in IL-12 levels"}
    ]}
  ]
}
